Results on 2 compounds are retold here after article PMC5590800 (Biomolecules & Therapeutics, 2017).

Several values for one entry are separate records, joined by “and”; a condition that tells them apart may be missing. Equal values may be shown once. Read-outs that look alike come from different tables or passages of the source.

For series [1] the following is noted: oral administration; ref Sezgin-Bayindir et al., 2013; Cai et al., 2014; cited from earlier work.
The format of series [2] is in vivo, Sprague-Dawley rats.
Series [3] in a line: In vitro daunomycin cytotoxicity assay. It is filed as cell-based. As to conditions: human.
[4] abbreviates: male, Sprague-Dawley, rat, plasma, iv, 2 mg/kg.
Setting [5] is: male, Sprague-Dawley, rat, plasma, po, 25 mg/kg.

Regarding `CC(=O)O[C@H]1C(=O)[C@@]2(C)[C@H]([C@H](OC(=O)c3ccccc3)[C@]3(O)C[C@H](OC(=O)[C@H](O)[C@@H](NC(=O)c4ccccc4)c4ccccc4)C(C)=C1C3(C)C)[C@]1(OC(C)=O)CO[C@@H]1C[C@@H]2O` [PTX, Paclitaxel], in series [1], the “Oral bioavailability of PTX” value is recorded as < 5%. Moreover, the “Clt of PTX” value in series [2] (PTX IV 2 mg/kg, rats, 2 mg/kg) was 0.328 L/h and 0.328 ± 0.097 L/h. Also, the “Relative BA of PTX” value in series [2] (PTX PO 25 mg/kg alone (oral control), rats) was 100.0%. Also, the “Absolute BA of PTX” value in series [2] (PTX PO 25 mg/kg alone vs IV 2 mg/kg, rats) is recorded as 2.0%. Moreover, the “Clt/F of PTX” value in series [2] (PTX PO 25 mg/kg alone, rats) is on record as 12.7 ± 2.8 L/h. In series [2] (setting [4]), the AUC(0-inf) worked out at 1790 ± 522 ng·h/mL, the AUC(0-t) came out at 1660 ± 499 ng·h/mL, the C0 turned out to be 3330 ± 1160 ng/mL and the volume of distribution (Vd) was determined as 2.06 ± 0.36 L. In series [2] (setting [4]), this compound gave a half-life of 4.55 ± 1.02 h and a k el of 4.47e-05 s⁻¹. For the same compound, in series [2] (setting [5]), the AUC(0-inf) came to 564 ± 116 ng·h/mL, the area under the curve AUC(0-t) stood at 409 ± 47.2 ng·h/mL, the Cmax was determined as 60.6 ± 10.3 ng/mL and the Tmax turned out to be 4.2 ± 1.1 h. Moreover, in series [2] (setting [5]), the Vd/F was 73.6 ± 14.9 L, the half-life was 4.26 ± 1.62 h and the k el is 5.06e-05 s⁻¹.

On to `COc1cccc2c1C(=O)c1c(O)c3c(c(O)c1C2=O)C[C@@](O)(C(C)=O)C[C@@H]3O[C@H]1C[C@H](N)[C@H](O)[C@H](C)O1` [DNM, Daunomycin], for which the IC50 at 2 h in series [3] worked out at 10.4 ± 0.53 µM.
